Measurements from US20060014717A1, “Therapeutic compositions for use in prophylaxis or treatment of diarrheas” (priority 2002, published 2006).

Assays:
diarrheagenic E. coli = test: Inhibition with soluble oligosaccharides in the chromatogram binding assay; parameters: species or system Escherichia coli
Procedure: (§1) Glycosphingolipid Binding Assays—Binding of ^35S-labeled bacteria to glycosphingolipids on thin-layer chromatograms was done as reported (7). Dried chromatograms were dipped for 1 min in diethylether/n-hexane (1:5, by volume) containing 0.5% (w/v) polyisobutylmethacrylate (Aldrich Chem. Comp. Inc., Milwaukee, Wis.). After drying, the chromatograms were soaked in PBS containing 2% bovine serum albumin (w/v), 0.1% NaN3 (w/v) and 0.1% Tween 20 (by volume) for 2 h at room temperature. The chromatograms were subsequentely covered with radiolabeled bacteria diluted in PBS (2-5×10^6 cpm/ml). Incubation was done for 2 h at room temperature, followed by repeated washings with PBS. The chromatograms were thereafter autoradiographed using XAR-5 X-ray films (Eastman Kodak, Rochester, N.Y.) for 12 h. Autoradiograms were replicated using a CCD camera (Dage-MTI, Inc., Michigan City, Ind.), and analysis of the images was performed using the public domain NIH Image program (developed at the U.S. National Institutes of Health, and available at http://rsb.info.nih.eov/nih-imaee/).
The final concentrations of the inhibiting oligosaccharides on the TLC-plate were 0.3 mM. […] Thereafter the chromatogram binding assay was performed as described above.

[1] = system: diarrheagenic Escherichia coli CCUG 38068 (EPEC); test: Chromatogram binding assay of 35S-labeled bacteria to glycosphingolipids on thin-layer plates; conditions: thin-layer chromatograms, TLC overlay
Procedure: (§2) Culture Conditions and Labeling—The E. coli strains were cultured on Luria-agar with the addition of 10 μl ^35S-methionine (400 tici; Amersham Pharmacia Biotech, U.K.) at 37° C. for 12 h. The bacteria were harvested by scraping, washed three times with phosphate-buffered saline (PBS), pH 7.3, and thereafter resuspended in PBS (with or without 1% mannose (w/v)) to 1×10^8 CFU/ml. The specific activities of the suspensions were approximately 1 cpm per 100 bacteria.
(§3) Thin-Layer Chromatography—Thin-layer chromatography of glycosphingolipids was performed on glass- or aluminum-backed silica gel 60 HPTLC plates (Merck, Darmstadt, Germany), using chloroform/methanol/water 60:35:8 (by volume) as solvent system. Chemical detection was done with anisaldehyde (6).
as §1

[2] = system: diarrheagenic Escherichia coli CCUG 38077 (EAEC); test: as above; conditions: thin-layer chromatograms, TLC overlay
Procedure: as §2, §3, §1

EPEC strain = conditions: listed in decreasing order of activity; cited from earlier work
H. pylori CCUG 17874 = test: Binding of 35S-labeled Helicobacter species to glycosphingolipids on thin-layer chromatograms; parameters: species or system Helicobacter pylori; key: + denotes a significant darkening on the autoradiogram when 2 μg (or 40 μg in the case of the last sample) was applied to TLC plates; − denotes no binding; conditions: 2 μg (40 μg for the glycosphingolipid fraction) on TLC plates
Source text: (§4) Gastric species examined in the present study included, Helicobacter mustelae ferret isolates from the National Collection of Type Cultures (NCTC) and the Culture Collection of the University of Gothenberg (CCUG), NCTC 12198/CCUG 25175 (equivalent strains from different sources tested), CCUG 23950 and CCUG 23951, Helicobacterfelis CCUG 28539 from a cat, in addition, H. pylori strains CCUG 17874, CCUG 17875 and a clinical isolate 119/95 were used. Enterohepatic helicobacters of animal origin were purchased from the CCUG including, Helicobacter canes CCUG 33835, Helicobacter bilis CCUG 38995, Helicobacter hepaticus CCUG 33637, and Helicobacterfennelliae (CCUG 18820).
(§5) Binding of Helicobacter spp. to glycosphingolipids, both acid and non-acidfractions. Glycosphingolipids were isolated by standard procedures (Karlsson, 1987). The identity of the purified glycosphingolipids was confirmed by mass spectrometry (Samuelsson et al., 1990), proton NMR spectroscopy (Koerner et al., 1983) and degradation studies (Stellner et al., 1973; Yang and Hakomori, 1971).
(§6) Mixtures of glycosphingolipids (40 μg/lane) or pure compounds (2 μg/lane) were subsequently separated using thin-layer chromatography (TLC) on glass- or aluminum-backed silica gel 60 HPTLC plates (Merck, Darmstadt, Germany), with chloroform/methanot/water (60:35:8, by volume) as solvent system. Chemical detection was accomplished by anisaldehyde (Waldi, 1962). Helicobacter spp. were subjected to ^35S-labeling (Angstrom et al., 1998) and suspended in PBS (10^8 CFU/ml) with a specific activity of approximately 1 cpm per 100 organisms. Binding of the labeled-bacteria to glycosphingolipids separated by TLC was achieved using a bacterial-overlay technique coupled with autoradiography detection using XAR-5 X-ray films (Eastman Kodak, Rochester, N.Y.) as previously described (Hansson et al., 1985).

H. pylori CCUG 17875 = test: as above; parameters: species or system Helicobacter pylori; key: + denotes a significant darkening on the autoradiogram when 2 μg (or 40 μg in the case of the last sample) was applied to TLC plates; − denotes no binding; conditions: 2 μg (40 μg for the glycosphingolipid fraction) on TLC plates
Source text: as §4, §5, §6

H. felis CCUG 28539 = test: as above; parameters: species or system Helicobacter felis; key: + denotes a significant darkening on the autoradiogram when 2 μg (or 40 μg in the case of the last sample) was applied to TLC plates; − denotes no binding; conditions: 2 μg (40 μg for the glycosphingolipid fraction) on TLC plates
Source text: as §4, §5, §6

H. canis CCUG 33835 = test: as above; parameters: species or system Helicobacter canis; key: + denotes a significant darkening on the autoradiogram when 2 μg (or 40 μg in the case of the last sample) was applied to TLC plates; − denotes no binding; conditions: 2 μg (40 μg for the glycosphingolipid fraction) on TLC plates
Source text: as §4, §5, §6

H. hepaticus CCUG 33637 = test: as above; parameters: species or system Helicobacter hepaticus; key: + denotes a significant darkening on the autoradiogram when 2 μg (or 40 μg in the case of the last sample) was applied to TLC plates; − denotes no binding; conditions: 2 μg (40 μg for the glycosphingolipid fraction) on TLC plates
Source text: as §4, §5, §6

H. mustelae 25715 = test: as above; parameters: species or system Helicobacter mustelae; key: + denotes a significant darkening on the autoradiogram when 2 μg (or 40 μg in the case of the last sample) was applied to TLC plates; − denotes no binding; conditions: 2 μg (40 μg for the glycosphingolipid fraction) on TLC plates
Source text: as §4, §5, §6

[3] = system: H. mustelae CCUG 23950 & 23951; test: as above; parameters: species or system Helicobacter mustelae; key: + denotes a significant darkening on the autoradiogram when 2 μg (or 40 μg in the case of the last sample) was applied to TLC plates; − denotes no binding; conditions: 2 μg (40 μg for the glycosphingolipid fraction) on TLC plates
Source text: as §4, §5, §6

H. bilis CCUG 38995 = test: as above; parameters: species or system Helicobacter bilis; key: + denotes a significant darkening on the autoradiogram when 2 μg (or 40 μg in the case of the last sample) was applied to TLC plates; − denotes no binding; conditions: 2 μg (40 μg for the glycosphingolipid fraction) on TLC plates
Source text: as §4, §5, §6

## CC(=O)N[C@H]1[C@H](O[C@H]2[C@@H](O)[C@@H](CO)O[C@@H](O[C@H]3[C@H](O)[C@@H](O)C(O)O[C@@H]3CO)[C@@H]2O)O[C@H](CO)[C@@H](O[C@@H]2O[C@H](CO)[C@H](O)[C@H](O)[C@H]2O)[C@@H]1O (mixture of isomers) [Lacto-N-neotetraose, Galβ4GlcNAcβ3Galβ4Glc]
Diarrheagenic E. coli; 0.3 mM final concentration
  Inhibition of binding to neolacto glycolipid: inhibited binding

## CC(=O)N[C@H]1C(O)O[C@H](CO)[C@H](O)[C@@H]1O[C@@H]1O[C@H](CO)[C@H](O)[C@H](O)[C@H]1O (stereo partly shown) [Galβ3GalNAc]
Diarrheagenic E. coli; 0.3 mM concentration
  Activity as monovalent inhibitor against the Ganglio-receptor glycolipid: not active

## CCCCCCCCCCCCCCCCc1ccc(NC[C@H](O)[C@@H](O)[C@H](O[C@@H]2O[C@H](CO[C@@H]3O[C@H](CO)[C@@H](O)[C@H](O)[C@H]3NC(C)=O)[C@H](O)[C@H](O[C@@H]3O[C@H](CO)[C@@H](O)[C@H](O[C@@H]4O[C@H](CO)[C@H](O)[C@H](O)[C@H]4O)[C@H]3NC(C)=O)[C@H]2O)[C@H](O)CO)cc1 [Galβ3GlcNAcβ3(GlcNAcβ6)Galβ4Glc(red)-HDA]
[1]
  Binding of strain CCUG 38068 to glycosphingolipids and neoglycolipids, in words: much weaker or non-existent binding activities
[2]
  Binding of strain CCUG 38077 to glycosphingolipids and neoglycolipids, in words: much weaker or non-existent binding activities

## CCCCCCCCCCCCCCCCc1ccc(NC[C@H](O)[C@@H](O)[C@H](O[C@@H]2O[C@H](CO)[C@H](O)[C@H](O[C@@H]3O[C@H](CO)[C@@H](O[C@@H]4O[C@H](CO)[C@H](O)[C@H](O[C@@H]5O[C@H](CO)[C@@H](O)[C@H](O)[C@H]5NC(C)=O)[C@H]4O)[C@H](O)[C@H]3NC(C)=O)[C@H]2O)[C@H](O)CO)cc1 [GlcNAcβ3Galβ4GlcNAcβ3Galβ4Glc(red)-HDA]
[1]
  Binding of strain CCUG 38068 to glycosphingolipids and neoglycolipids, in words: had binding activity
[2]
  Binding of strain CCUG 38077 to glycosphingolipids and neoglycolipids, in words: had binding activity

## CCCCCCCCCCCCCCCCc1ccc(NC[C@H](O)[C@@H](O)[C@H](O[C@@H]2O[C@H](CO[C@@H]3O[C@H](CO)[C@@H](O[C@@H]4O[C@H](CO)[C@H](O)[C@H](O[C@@H]5O[C@H](CO)[C@@H](O)[C@H](O)[C@H]5NC(C)=O)[C@H]4O)[C@H](O)[C@H]3NC(C)=O)[C@H](O)[C@H](O)[C@H]2O)[C@H](O)CO)cc1 [GlcNAcβ3Galβ4GlcNAcβ6Galβ4Glc(red)HDA, GlcNAcβ3Galβ4GlcNAcβ6Galβ4Glc(red)-HDA]
[1]
  Binding of strain CCUG 38068 to glycosphingolipids and neoglycolipids, in words: much weaker or non-existent binding activities
[2]
  Binding of strain CCUG 38077 to glycosphingolipids and neoglycolipids, in words: much weaker or non-existent binding activities

## CC(=O)N[C@H]1[C@H](O[C@H]2[C@@H](O)[C@@H](CO)O[C@@H](O[C@H]3[C@H](O)[C@@H](O)C(O)O[C@@H]3CO)[C@@H]2O)O[C@H](CO)[C@@H](O)[C@@H]1O[C@@H]1O[C@H](CO)[C@H](O)[C@H](O)[C@H]1O (stereo partly shown) [Lacto-N-tetraose, Galβ3GlcNAcβ3Galβ4Glc]
Diarrheagenic E. coli; lowest densities of glycolipids
  Inhibition of binding to lactotetraosylceramide: able to inhibit
EPEC strain
  Binding of an EPEC strain to commercial glycolipids: observed to bind

## CCCCCCCCCCCCCCCCc1ccc(NC[C@@H](O)[C@@H](O[C@H]2O[C@H](CO)[C@@H](O)[C@H](O)[C@@H]2O)[C@H](O)[C@H](O)CO[C@H]2O[C@H](CO)[C@@H](O)[C@H](O)[C@@H]2O)cc1 [Manα3(Manα6)Man(red)-HDA]
[1]
  Binding of strain CCUG 38068 to glycosphingolipids and neoglycolipids, in words: had binding activity
[1]; listed as Manα3(Manα6)Man
  Binding of strain CCUG 38068 to glycosphingolipids and neoglycolipids, in words: bind
[2]
  Binding of strain CCUG 38077 to glycosphingolipids and neoglycolipids, in words: had binding activity
[2]; listed as Manα3(Manα6)Man
  Binding of strain CCUG 38077 to glycosphingolipids and neoglycolipids, in words: bind

## GalNAcα3GalNAcβ3Galα4Galβ4Glcβ1Cer [No. 14]
EPEC strain
  Binding of an EPEC strain to commercial glycolipids: negative

## GalNAcβ4Galβ4Glcβ1Cer [No. 10]
EPEC strain
  Binding of an EPEC strain to commercial glycolipids: observed to bind

## Galα4Galβ4Glcβ1Cer [No. 8]
EPEC strain
  Binding of an EPEC strain to commercial glycolipids: negative

## NeuGcα3Galβ4GlcNAcβ3Galβ4GlcNAcβ3Galβ4Glcβ1Cer [No. 36]
H. pylori CCUG 17874
  Binding of glycosphingolipids to H.pylori 17874: +
H. pylori CCUG 17875
  Binding of glycosphingolipids to H.pylori 17875: +
H. felis CCUG 28539
  Binding of glycosphingolipids to H.felis 28539: +
H. canis CCUG 33835
  Binding of glycosphingolipids to H.canis 33835: +
H. hepaticus CCUG 33637
  Binding of glycosphingolipids to H.hepaticus 33637: +
H. mustelae 25715
  Binding of glycosphingolipids to H.mustelae 25715: +
[3]
  Binding of glycosphingolipids to H.mustelae 23950 & 23951: +
H. bilis CCUG 38995
  Binding of glycosphingolipids to H.bilis 38995: +
